Experimental data published in patent US20100093648A1, “TREATMENT OF MACULAR DEGENERATION-RELATED DISORDERS” (priority 2008, published 2010).

System: APOE4 HF-C mice
Assay: Electroretinogram (ERG) in aged APOE4 mice on high fat/cholesterol diet (murine AMD model)
Type: in vivo, mouse
Settings: aged male APOE4 mice, high cholesterol diet 8 weeks, scyllo-inositol 10 mg/ml in drinking water ad libitum
Text: The ocular pathologies of AMD may be recapitulated in a murine model by applying three physiologically relevant risk factors: specific APOE genotype (APOE4), advanced age and high fat/cholesterol-rich (HF-C) diet. These mice develop sub-retinal pigment epithelium (RPE) deposits (basal deposits), RPE atrophy and choroidal neovascularization in a temporal, non-fully penetrant manner that is analogous to human AMD progression [Malek, G., et al., (2005), Proc Natl Acad Sci USA 102, 11900-5]. An electrophysiological phenotype is associated with this pathology. […] The ability of scyllo-inositol (AZD-103/ELN005) to prevent retina/RPE damage, the buildup of basal deposits and attenuation of the ERG was evaluated.
Aged male APOE4 mice housed conventionally, under ambient conditions maintained on water ad libitum and normal mouse chow (normal diet or ND), were assigned to three treatment groups. This assignment was random, although the ages of the animals were balanced across the groups. One group was maintained on the normal diet. The second group was switched to a high fat cholesterol (HFC) diet (35% fat, 20% protein, 45% carbohydrates, 1.25% cholesterol, 0.5% sodium cholate) for 8 weeks. The third group received scyllo-inositol (AZD-103/ELN005) ad libitum (dissolved in drinking water at 10 mg/ml) for 7 days. They were then switched to the HF-C diet for 8 weeks, during which time they continued to receive scyllo-inositol (AZD-103/ELN005) ad libitum. […] ERG tracings were recorded using a platinum iridium wire loop electrode placed in contact with the eye along with a drop of 2.5% hydroxypropyl methylcellulose. […] The a-wave amplitude was measured from baseline to the a-wave trough, and the b-wave amplitude was measured from the a-wave trough to the b-wave peak. • 4. […] Quantitation of photoreceptors. […] The thickness of outer nuclear layer and the linear density of photoreceptor will be calculated. […]
After 8 weeks, animals were assessed by electroretinogram. […] The electrophysiological response to these flashes was recorded by an electrode touching the surface of the eye. […]

## scyllo-inositol [scyllo-inositol (AZD-103/ELN005)]
  a-wave amplitude (ERG): consistent
  retinal function as demonstrated by ERGs: prevented the retinal defect that was caused by high cholesterol diet
All flash intensities, compared with normal diet controls
  scotopic b-wave amplitude (ERG): virtually indistinguishable from the normal diet control animals
